Experimental findings from ChEMBL document CHEMBL3576852, “Switch in Site of Inhibition: A Strategy for Structure-Based Discovery of Human Topoisomerase IIα Catalytic Inhibitors” (ACS Med Chem Lett, 2015) are described below.

Activity calls are given as the source filed them. No cut-off for these calls is given here. Some results are limits rather than exact numbers.

Data set [1] addresses T1, DNA topoisomerase 2-alpha (Homo sapiens, UniProt P11388). Kind of data set: Inhibition of human topoisomerase 2alpha assessed as reduction in enzyme-mediated kinetoplast DNA decatenation at 100 uM incubated for 30 mins by agarose gel electrophoresis method.
The target of data set [2] is T1, DNA topoisomerase 2-alpha. Kind of data set: Inhibition of human topoisomerase 2alpha assessed as reduction in enzyme-mediated relaxation of negatively supercoiled pRYG DNA at 100 uM incubated for 30 mins by ethidium bromide staining based gel electrophoresis method.
Data set [3] deals with T2, DNA topoisomerase 1 (Homo sapiens) (UniProt P11387).
T2 sequence (whole entry): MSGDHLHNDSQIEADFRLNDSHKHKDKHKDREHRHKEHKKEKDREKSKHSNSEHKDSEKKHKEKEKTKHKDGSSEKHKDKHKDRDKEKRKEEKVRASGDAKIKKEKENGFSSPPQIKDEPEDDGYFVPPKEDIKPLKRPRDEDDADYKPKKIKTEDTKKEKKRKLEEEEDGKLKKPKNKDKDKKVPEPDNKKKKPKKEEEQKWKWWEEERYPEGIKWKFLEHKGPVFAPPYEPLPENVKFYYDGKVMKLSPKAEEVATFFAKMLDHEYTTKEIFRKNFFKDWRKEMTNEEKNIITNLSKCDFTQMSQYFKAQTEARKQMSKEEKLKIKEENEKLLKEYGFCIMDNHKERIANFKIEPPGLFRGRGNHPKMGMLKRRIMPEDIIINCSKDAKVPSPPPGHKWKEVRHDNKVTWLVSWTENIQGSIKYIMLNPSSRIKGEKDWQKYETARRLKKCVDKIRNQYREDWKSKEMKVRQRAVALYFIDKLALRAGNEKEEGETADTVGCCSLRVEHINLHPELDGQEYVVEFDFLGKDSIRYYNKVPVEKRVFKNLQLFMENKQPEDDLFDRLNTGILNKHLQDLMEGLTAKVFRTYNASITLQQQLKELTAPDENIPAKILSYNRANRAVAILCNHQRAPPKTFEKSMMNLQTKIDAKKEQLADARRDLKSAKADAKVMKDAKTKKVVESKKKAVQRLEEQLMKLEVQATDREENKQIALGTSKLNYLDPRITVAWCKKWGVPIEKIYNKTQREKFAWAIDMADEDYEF
Kind of data set: Inhibition of human topoisomerase-1 assessed as reduction in enzyme-mediated relaxation of negatively supercoiled pRYG DNA at 100 uM incubated for 30 mins by ethidium bromide staining based gel electrophoresis method.

Data set [4] can be described thus: Cytotoxicity against African green monkey Vero cells assessed as cell viability at 75 uM after 48 hrs by MTT assay. The format is cell-based. To be noted: chlorocebus sabaeus, read-out: Activity. (In general: Tetrazolium dyes change colour on reduction, which living cells bring about.)
For data set [5], the system named is HEK293. Kind of data set: Cytotoxicity against HEK293 cells assessed as reduction in cell viability after 48 hrs by MTT assay. The format is functional. To be noted: Homo sapiens; for CC50: HEK293, 48 h, read-out: LC50 (the source's name).
Data set [6] has as its target T1, DNA topoisomerase 2-alpha. Kind of data set: Poisoning activity against human topoisomerase 2alpha assessed as induction of linear DNA formation at 100 uM incubated for 20 mins using small circular supercoiled pHOT DNA substrate by ethidium bromide staining based gel electrophoresis method.
Data set [7] has as its target T1, DNA topoisomerase 2-alpha. To be noted: HEK293, 45 uM.
Description: Inhibition of topoisomerase 2alpha in HEK293 cells at 45 uM incubated for 48 hrs using TOP-FLASH plasmid substrate by ethidium bromide staining based agarose gel electrophoresis method
A short description of data set [8]: Cytotoxicity against African green monkey Vero cells assessed as reduction in cell viability after 48 hrs by MTT assay. The format is cell-based. To be noted: chlorocebus sabaeus, read-out: LC50.
For data set [9], the target named is T1, DNA topoisomerase 2-alpha. Kind of data set: Inhibition of etoposide-enhanced human topoisomerase 2alpha-mediated DNA cleavage at 100 to 400 uM incubated for 2 mins in presence of 100 uM etoposide by ethidium bromide staining based gel electrophoresis method.
Data set [10] has as its target T1, DNA topoisomerase 2-alpha. Kind of data set: Inhibition of etoposide-enhanced human topoisomerase 2alpha-mediated DNA cleavage at 100 to 400 uM pre-incubated for 2 mins with 100 uM etoposide followed by compound addition by ethidium bromide staining based gel electrophoresis method.
The target in data set [11] is T1, DNA topoisomerase 2-alpha. Kind of data set: Inhibition of human topoisomerase 2alpha ATPase activity assessed as inorganic phosphate release at 100 uM using pUC19 DNA substrate by malachite green reagent based ATPase inhibition assay.
Data set [12] relates to Nucleic Acid. Kind of data set: Induction of DNA intercalation of Escherichia coli pUC19 DNA at 100 uM by ethidium bromide staining based agarose gel electrophoresis method. The format is nucleic-acid assay.
Data set [13] can be described thus: Binding affinity to TOP-FLASH TCF/LEF transcription factor DNA (unknown origin) at 5 to 25 uM incubated for 2 hrs by UV-visible spectrophotometry.
For data set [14], the target named is T1, DNA topoisomerase 2-alpha. Kind of data set: Inhibition of human topoisomerase 2alpha assessed as reduction in enzyme-mediated kinetoplast DNA decatenation incubated for 30 mins by agarose gel electrophoresis method.
For data set [15], the target named is T1, DNA topoisomerase 2-alpha. Kind of data set: Inhibition of etoposide-enhanced human topoisomerase 2alpha-mediated DNA cleavage at 100 to 400 uM incubated for 2 mins with simultaneous addition of 100 uM etoposide by ethidium bromide staining based gel electrophoresis method.
In data set [16] the target is T1, DNA topoisomerase 2-alpha. Kind of data set: Inhibition of topoisomerase 2alpha in HEK293 cells at 5 to 15 uM incubated for 48 hrs using TOP-FLASH plasmid substrate by ethidium bromide staining based agarose gel electrophoresis method. The format is cell-based.
Data set [17] addresses T1, DNA topoisomerase 2-alpha. Kind of data set: Inhibition of etoposide-enhanced human topoisomerase 2alpha-mediated DNA cleavage at 100 to 400 uM pre-incubated for 2 mins before 100 uM etoposide addition by ethidium bromide staining based gel electrophoresis method.

T1 sequence (P11388 whole entry): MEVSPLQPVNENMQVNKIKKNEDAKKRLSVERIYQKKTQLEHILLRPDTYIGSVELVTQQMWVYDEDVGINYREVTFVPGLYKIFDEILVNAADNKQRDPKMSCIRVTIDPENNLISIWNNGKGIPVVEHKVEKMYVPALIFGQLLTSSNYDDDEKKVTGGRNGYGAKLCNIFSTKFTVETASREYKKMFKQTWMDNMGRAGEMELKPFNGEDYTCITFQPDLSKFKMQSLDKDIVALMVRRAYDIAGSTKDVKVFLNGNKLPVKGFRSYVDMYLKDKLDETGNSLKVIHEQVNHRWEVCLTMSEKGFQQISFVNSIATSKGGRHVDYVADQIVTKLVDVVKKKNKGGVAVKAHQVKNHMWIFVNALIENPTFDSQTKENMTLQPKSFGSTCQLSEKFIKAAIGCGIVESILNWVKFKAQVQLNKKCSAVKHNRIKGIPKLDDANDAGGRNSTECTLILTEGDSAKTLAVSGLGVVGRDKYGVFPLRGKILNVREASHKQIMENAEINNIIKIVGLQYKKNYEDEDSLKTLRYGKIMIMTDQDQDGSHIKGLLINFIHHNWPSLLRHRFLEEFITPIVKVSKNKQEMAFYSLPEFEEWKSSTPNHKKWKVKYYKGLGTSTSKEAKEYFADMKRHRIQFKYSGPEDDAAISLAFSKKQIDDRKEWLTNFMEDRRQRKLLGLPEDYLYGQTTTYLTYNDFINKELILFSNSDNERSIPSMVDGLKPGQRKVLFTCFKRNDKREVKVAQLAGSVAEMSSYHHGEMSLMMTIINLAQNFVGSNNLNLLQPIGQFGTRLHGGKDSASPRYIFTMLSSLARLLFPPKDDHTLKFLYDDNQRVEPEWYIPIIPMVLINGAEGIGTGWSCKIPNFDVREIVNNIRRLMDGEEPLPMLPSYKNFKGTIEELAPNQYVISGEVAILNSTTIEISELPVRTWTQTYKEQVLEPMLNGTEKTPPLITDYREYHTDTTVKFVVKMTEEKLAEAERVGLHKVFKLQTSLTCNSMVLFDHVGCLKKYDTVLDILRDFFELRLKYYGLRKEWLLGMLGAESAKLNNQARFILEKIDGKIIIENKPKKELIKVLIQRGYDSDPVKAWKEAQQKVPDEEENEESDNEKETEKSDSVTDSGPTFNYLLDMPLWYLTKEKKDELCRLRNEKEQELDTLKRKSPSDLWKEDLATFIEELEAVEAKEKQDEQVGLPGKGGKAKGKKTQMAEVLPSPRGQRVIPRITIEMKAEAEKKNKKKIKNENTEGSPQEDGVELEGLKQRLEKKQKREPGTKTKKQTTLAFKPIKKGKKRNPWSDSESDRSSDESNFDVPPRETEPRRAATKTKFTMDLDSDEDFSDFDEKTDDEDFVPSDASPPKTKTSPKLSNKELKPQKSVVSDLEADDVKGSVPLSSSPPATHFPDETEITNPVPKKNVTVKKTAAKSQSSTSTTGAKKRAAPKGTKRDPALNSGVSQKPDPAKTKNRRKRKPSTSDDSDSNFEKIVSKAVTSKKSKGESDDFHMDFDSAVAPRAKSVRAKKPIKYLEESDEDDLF

As for `CC(C)(C)Nc1c(-c2ccc(-c3ccc(Cl)cc3)cc2)nc2ccccn12`, the inhibition result in [1] and in [2] was “inactive” in each case.

In the case of `COc1ccc(-c2ccc(-c3nc4ccccn4c3NC(C)(C)C)cc2)cc1`, the inhibition entry in data set [1] and in [2] was “inactive” each time.

For `CC(C)(C)Nc1c(-c2ccc(Cl)cc2)nc2ccc(-c3ccc(F)cc3)cn12`, in data set [3], the inhibition result was “inactive”. The inhibition result in [1] and in [2] was “Active” throughout. For the same compound, the viability at 48 h, 75 µM in [4] was greater than 30%. For the same compound, the Activity entry in [5] is “Dose-dependent effect”. Moreover, in [5], the CC50 is 8 µM. For the same compound, the outcome in [6] was inactive.

For the compound `COc1ccc(-c2nc3ccc(-c4ccccc4)cn3c2NC(C)(C)C)cc1`, the inhibition entry in data set [3] was “inactive”. Also, the inhibition result in [1] is “Active”. Besides, the viability at 48 h, 75 µM in [4] was greater than 30%. Moreover, in data set [5], the Activity result is “Dose-dependent effect” and the CC50 is 13 µM. In addition, in [6], the outcome was inactive. Also, in [2], the inhibition entry was “Active”.

Take `COc1cc([C@@H]2c3cc4c(cc3[C@@H](O[C@@H]3O[C@@H]5CO[C@@H](C)O[C@H]5[C@H](O)[C@H]3O)[C@H]3COC(=O)[C@H]23)OCO4)cc(OC)c1O` [ETOPOSIDE]: in data set [7], the inhibition entry is “Active”. Also, in [8], the CC50 at 48 h came out at 75 µM. Also, the CC50 in data set [5] came out at 55 µM. Moreover, the result in [6] was Active.

Turning to `CC(C)(C)Nc1c(-c2ccc(C(=O)O)cc2)nc2ccccn12`, the inhibition entry in data set [9] is “inactive”.

Turning to `CC(C)(C)Nc1c(-c2ccc(-c3ccccc3)cc2)nc2cnccn12`, the inhibition result in data set [1] and in data set [2] was “Active” each time.

What is called IC50 is the concentration that inhibits the measured activity by half. As to `CC(C)(C)Nc1c(-c2ccc(Cl)cc2)nc2ccc(-c3ccccc3)cn12`, in [3], the inhibition entry is “inactive”. Moreover, the inhibition result in data set [1], in [10], in [11], in data set [15], in data set [16] and in data set [2] was “Active” in each case. Further, in [4], the viability at 48 h, 75 µM was greater than 30%. For the same compound, the result in [12], in data set [13] and in [6] was inactive. In [5], the Activity result is “Dose-dependent effect”. Besides, the CC50 in data set [5] is 10 µM. Besides, the IC50 in data set [14] amounted to 55.4 µM. Besides, in data set [17], the inhibition entry is “Dose-dependent effect”.

Take `Cc1ccc(-c2ccc3nc(-c4ccc(Cl)cc4)c(NC(C)(C)C)n3c2)cc1`: the inhibition result in data set [3] is “inactive”. For the same compound, the inhibition result in [1] and in [2] was “Active” in each case. Also, the viability at 48 h, 75 µM in data set [4] is greater than 30%. Besides, in data set [5], the Activity result is “Dose-dependent effect”. Further, the CC50 in data set [5] came out at 15 µM. In addition, the outcome in data set [6] was inactive.

Regarding `CC(=O)c1ccc(-c2ccc(-c3nc4cnccn4c3NC(C)(C)C)cc2)cc1`, the inhibition entry in data set [1] and in [2] was “Active” in each case.

On to `COc1ccc(-c2ccc3nc(-c4ccc(Cl)cc4)c(NC(C)(C)C)n3c2)cc1`, for which the inhibition entry in data set [3] is “inactive”. Moreover, the inhibition result in data set [1] and in data set [2] was “Active” throughout. The viability at 48 h, 75 µM in [4] was greater than 30%. For the same compound, the Activity entry in data set [5] was “Dose-dependent effect”. In addition, in data set [5], the CC50 came out at 10 µM. Besides, the result in [6] was inactive.

For `CC(C)(C)Nc1c(-c2ccc(-c3ccc(F)cc3)cc2)nc2cnccn12`, the inhibition result in data set [1] and in data set [2] was “inactive” in each case.
